# Measurements published in US4755522A, “Derivatives of N-[3-(2,4,6-trimethoxybenzoyl)propyl]piperidine, and their use in therapeutics” (priority 1986, dated 1988).
# Structures can show the parent of a compound that is named as a salt. Where two headings read alike, the source gives them in different places.
# How the values were obtained:
# arterial pressure = conditions: prior-technique compound; cited from earlier work
# intergroup aggressivity = experiment: Intergroup aggressivity; conditions: in vivo
# Description: (§1) The compound of example 2 in solution in distilled water (pH 5.5 to 6.0) was administered by intraperitoneal route at a rate of 20 ml/kg in mice (male, NMRI, C.E.R. January) and of 5 ml/kg to rats (male, CD1, Sprague Dawley, Charles River).
# man = experiment: Anti-depressant effect in man; format: in vivo
# [1] = test system: arrhythmias caused by I.V. injection of adrenaline; experiment: Arrhythmias caused by I.V. adrenaline in dogs with coronary artery previously ligatured; format: in vivo, dog
# reserpinic hypothermia = experiment: Reserpinic hypothermia; conditions: in vivo
# Description: as §1
# [2] = test system: amphetaminic stereotypies; experiment: Amphetaminic stereotypies in the rat; format: in vivo
# Description: as §1
# awakened dog = experiment: Anti-arrhythmic action on the awakened dog; format: in vivo
# isoprenaline = experiment: Effects of isoprenaline on arterial pressure and cardiac rate after the compound (dog); format: in vivo; conditions: after CRL 41,390
# Description: (§2) 3 dogs (average weight, 14 kg) anaesthetized with nembutal, received the CRL 41,390 by intra-duodenal route, at successive doses of 0.1-0.5-1-2.5-5-10-20 mg/kg, then a supplementary dose of 10 mg/kg I.V.
# cardio-vascular system = experiment: Action on the cardio-vascular system in the anaesthetized dog; format: in vivo; conditions: for minimal effective dose: Canis lupus familiaris, read-out: dose from which heart rate is significantly reduced
# Description: (b) Action on the cardio-vascular system (in the dog).
# (§3) 3 dogs (average weight, 12 kg) anaesthetized with nembutal, receive the compound by intra-duodenal route at successive doses of 0.1-0.5-2.5-10 and 20 mg/kg.
# The arterial pressure, the cardiac rate, the femoral arterial flow, the vertebral arterial flow, the rectal and skin temperatures are all measured. The coloration of the skin is observed.
# as §2
# The arterial pressure, the cardiac frequency, the femoral arterial flow, the vertebral arterial flow, the rectal and cutaneous temperatures, were measured. The coloration of the skin was observed.
# noradrenaline = experiment: Hypertension with noradrenaline after the compound (dog); format: in vivo; conditions: after CRL 41,390
# Description: as §3, §2
# Hypertension to noradrenaline is not modified: at 2 mcg/kg of noradrenaline, the systolic arterial pressure passes, after administration of the product, from 160 to 290 mmHg/161 to 289 mmHg in the control.
# [3] = test system: arrhythmias with aconitine; experiment: Arrhythmias with aconitine in the guinea-pig; format: in vivo
# Description: The compound was administered by intravenous route at a dose of 10 mg/kg to a series of 10 albino guinea-pigs of 380 to 495 g, anaesthetized with urethane.
# 5 minutes later, they receive an I.V. perfusion of the product causing arrhythmia at a dosage of 0.09 mg/min. in a volume of 0.6 ml/min.
# The compound is compared with quinidine at a dose of 5 mg/kg I>V> and with a series of controls.
# Lots are drawn for the treatments.
# B--Action on arrhythmias with aconitine.
# [4] = I.D. 0.1-20 mg/kg then 10 mg/kg I.V.
compound,measurement,setting,value
"COc1cc(OC)c(C(=O)CCCN2CCCC(C)C2)c(OC)c1 (centres unmarked) [CRL 41,034, (2,4,6-trimethoxyphenyl)-[3-(3-methylpiperidino)propyl] ketone]",effect on the arterial pressure,arterial pressure,hypotensive effect
"CCOC(=O)C1CCCN(CCCC(=O)c2c(OC)cc(OC)cc2OC)C1 (centres unmarked) [CRL 41,389, ethyl N-[3-(2,4,6-trimethoxybenzoyl)propyl] nipecotate hydrochloride]",intergroup aggressivity,intergroup aggressivity,reduction of intergroup aggressivity
same,effect in man,man,anti-depressant stimulant
same,minimal effective dose,"[1]; Canis lupus familiaris, iv, read-out: dose from which arrhythmias are reduced",2.5 mg/kg
same,arrhythmias caused by I.V. adrenaline,[1]; from 2.5 mg/kg,reduces arrhythmias
same,reserpinic hypothermia,reserpinic hypothermia,aggravation of reserpinic hypothermia
same,amphetaminic stereotypies,[2],moderate potentialization
"COc1cc(OC)c(C(=O)CCCN2CCCC(C(=O)O)C2)c(OC)c1.Cl (centres unmarked) [CRL 41,390, N-[3-(2,4,6-trimethoxybenzoyl)propyl]-3-piperidine carboxylic acid hydrochloride]",anti-arrhythmic action,awakened dog,no anti-arrhythmic action
same,"diastolic arterial pressure after the product, with isoprenaline","isoprenaline; 10 mcg/kg isoprenaline, control 35",44 mmHg
same,"cardiac frequency after the product, with isoprenaline","isoprenaline; 10 mcg/kg isoprenaline, control 272",250 beats/min.
same,effects of isoprenaline on diastolic arterial pressure and cardiac frequency,isoprenaline,slightly reduced
same,"diastolic arterial pressure after the product, before isoprenaline",isoprenaline; control 135,131 mmHg
same,"cardiac frequency after the product, before isoprenaline",isoprenaline; control 185,148 beats/min.
same,effect on vertebral flow,cardio-vascular system; 20 mg/kg,reduction in the vertebral flow
same,effect on femoral flow,"cardio-vascular system; 20 mg/kg, particularly in a dog",slight increase in the femoral flow
same,minimal effective dose,cardio-vascular system; intraduodenal,20 mg/kg
same,minimal effective dose,"cardio-vascular system; iv, I.V.",2.5 mg/kg
same,effect on rectal and cutaneous temperatures,cardio-vascular system; [4],moderately reduced
same,effect on the arterial pressure,cardio-vascular system; [4],no effect on the arterial pressure
same,effect on heart rate,cardio-vascular system; from I.V. 2.5 mg/kg and intraduodenal 20 mg/kg,significantly reduces the heart rate
same,"systolic arterial pressure after the product, with noradrenaline","noradrenaline; 2 mcg/kg noradrenaline, control 289",290 mmHg
same,hypertension to noradrenaline,noradrenaline,not modified
same,"systolic arterial pressure after the product, before noradrenaline",noradrenaline; control 161,160 mmHg
"C=C[C@H]1C[N@@]2CC[C@H]1C[C@@H]2[C@@H](O)c1ccnc2ccc(OC)cc12 [quinidine, reference compound]",appearance of ventricular tachycardia due to aconitine,[3]; quinidine 5 mg/kg I.V.,significantly retards only the appearance of ventricular tachycardia
same,retardation of ventricular tachycardia (average),[3]; quinidine 5 mg/kg I.V.,+30%
same,retardation compared with the compound according to the invention,[3]; quinidine 5 mg/kg I.V. vs compound 10 mg/kg I.V.,significantly less than that observed with the compound according to the invention
